In patent publication US20200010457A1, “TETRAHYDROPYRAN AND TETRAHYDROTHIOPYRAN AMIDE DERIVATIVES HAVING MULTIMODAL ACTIVITY AGAINST PAIN” (ESTEVE PHARMACEUTICALS, S.A., priority 2016, published 2020):

System: human σ1 receptor and human μ-opioid receptor
Experiment: Human σ1 receptor ([3H](+)-pentazocine) and human μ-opioid receptor ([3H]-DAMGO) radioligand assays, reported as one combined score
Format: binding
Parameters: key to σ1 and μ binding: +: Both Ki-μ and Ki-σ1>=1000 nM; ++: One Ki<1000 nM while the other Ki is >=1000 nM; +++: Both Ki-μ and Ki-σ1<1000 nM; ++++: Both Ki-μ and Ki-σ1<500 nM
Conditions: combined class for Ki-σ1 (transfected HEK-293 membranes) and Ki-μ (transfected CHO-K1 cell membranes); for Ki: read-out: σ1 and μ binding
Description: Human σ1 Receptor Radioligand Assay
To investigate binding properties of test compounds to human σ1 receptor, transfected HEK-293 membranes and [^3H](+)-pentazocine (Perkin Elmer, NET-1056), as the radioligand, were used. The assay was carried out with 7 μg of membrane suspension, 5 nM of [^3H](+)-pentazocine in either absence or presence of either buffer or 10 μM Haloperidol for total and non-specific binding, respectively. Binding buffer contained Tris-HCl 50 mM at pH 8. Plates were incubated at 37° C. for 120 minutes. After the incubation period, the reaction mix was then transferred to MultiScreen HTS, FC plates (Millipore), filtered and plates were washed 3 times with ice-cold 10 mM TrisHCL (pH7.4). Filters were dried and counted at approximately 40% efficiency in a MicroBeta scintillation counter (Perkin-Elmer) using EcoScint liquid scintillation cocktail.
Preferably, transfected HEK-293 membranes (7 μg) were incubated with 5 nM of [^3H](+)-pentazocine in assay buffer containing Tris-HCl 50 mM at pH 8. NBS (non-specific binding) was measured by adding 10 μM Haloperidol. The binding of the test compound was measured at five different concentrations. Plates were incubated at 37° C. for 120 minutes. After the incubation period, the reaction mix was then transferred to MultiScreen HTS, FC plates (Millipore), filtered and plates were washed 3 times with ice-cold 10 mM TrisHCL (pH7.4). Filters were dried and counted at approximately 40% efficiency in a MicroBeta scintillation counter (Perkin-Elmer) using EcoScint liquid scintillation cocktail.
Human μ-Opioid Receptor Radioligand Assay
To investigate binding properties of test compounds to human μ-opioid receptor, transfected CHO-K1 cell membranes and [^3H]-DAMGO (Perkin Elmer, ES-542-C), as the radioligand, were used. The assay was carried out with 20 μg of membrane suspension, 1 nM of [^3H]-DAMGO in either absence or presence of either buffer or 10 μM Naloxone for total and non-specific binding, respectively. Binding buffer contained Tris-HCl 50 mM, MgCl2 5 mM at pH 7.4. Plates were incubated at 27° C. for 60 minutes. After the incubation period, the reaction mix was then transferred to MultiScreen HTS, FC plates (Millipore), filtered and plates were washed 3 times with ice-cold 10 mM TrisHCL (pH 7.4). Filters were dried and counted at approximately 40% efficiency in a MicroBeta scintillation counter (Perkin-Elmer) using EcoScint liquid scintillation cocktail.
Preferably, transfected CHO-K1 cell membranes (20 μg) were incubated with 1 nM of [^3H]-DAMGO in assay buffer containing Tris-HCl 50 mM, MgCl2 5 mM at pH 7.4. NBS (non-specific binding) was measured by adding 10 μM Naloxone. The binding of the test compound was measured at five different concentrations. Plates were incubated at 27° C. for 60 minutes. After the incubation period, the reaction mix was then transferred to MultiScreen HTS, FC plates (Millipore), filtered and plates were washed 3 times with ice-cold 10 mM TrisHCL (pH 7.4). Filters were dried and counted at approximately 40% efficiency in a MicroBeta scintillation counter (Perkin-Elmer) using EcoScint liquid scintillation cocktail.

SMILES: CCC(=O)N(CC1(CCCNCC(C)C)CCOCC1)c1cccc(C(F)(F)F)n1 [Example 5, N-((4-(3-(Isobutylamino)propyl)tetrahydro-2H-pyran-4-yl)methyl)-N-(6-(trifluoromethyl)pyridin-2-yl)propionamide]
- σ1 and μ binding: ++

SMILES: CCOCCNCCCC1(CN(C(=O)CC)c2cccc(C(F)(F)F)n2)CCOCC1 [Example 6, N-((4-(3-((2-ethoxyethyl)amino)propyl)tetrahydro-2H-pyran-4-yl)methyl)-N-(6-(trifluoromethyl)pyridin-2-yl)propionamide]
- Ki: < 1000 nM

SMILES: CCC(=O)N(CC1(N(C)CCN(C)Cc2ccccc2)CCOCC1)c1cccc(C(F)(F)F)n1 [Example 2, N-((4-((2-(benzyl(methyl)amino)ethyl)(methyl)amino)tetrahydro-2H-pyran-4-yl)methyl)-N-(6-(trifluoromethyl)pyridin-2-yl)propionamide]
- σ1 and μ binding: ++

SMILES: CCC(=O)N(CC1(CCNCC(C)C)CCOCC1)c1cccc(C(F)(F)F)n1 [Example 7, N-((4-(2-(isobutylamino)ethyl)tetrahydro-2H-pyran-4-yl)methyl)-N-(6-(trifluoromethyl)pyridin-2-yl)propionamide]
- Ki: ≥ 1000 nM

SMILES: CCC(=O)N(CC1(CCCN(C)CC(C)C)CCOCC1)c1cccc(C(F)(F)F)n1 [Example 8, N-((4-(3-(isobutyl(methyl)amino)propyl)tetrahydro-2H-pyran-4-yl)methyl)-N-(6-(trifluoromethyl)pyridin-2-yl)propionamide]
- σ1 and μ binding: ++

SMILES: CCC(=O)N(CC1(N(C)CCNCC(C)C)CCOCC1)c1cccc(C(F)(F)F)n1 [Example 3, N-((4-((2-(Isobutylamino)ethyl)(methyl)amino)tetrahydro-2H-pyran-4-yl)methyl)-N-(6-(trifluoromethyl)pyridin-2-yl)propionamide]
- σ1 and μ binding: ++

SMILES: CCOCCN(C)CCCC1(CN(C(=O)CC)c2cccc(C(F)(F)F)n2)CCOCC1 [Example 9, N-((4-(3-((2-ethoxyethyl)(methyl)amino)propyl)tetrahydro-2H-pyran-4-yl)methyl)-N-(6-(trifluoromethyl)pyridin-2-yl)propionamide]
- Ki: ≥ 1000 nM

SMILES: CCC(=O)N(CC1(N(C)CCN(Cc2ccccc2)CC(C)C)CCOCC1)c1cccc(C(F)(F)F)n1 [Example 1, N-((4-((2-(Benzyl(isobutyl)amino)ethyl)(methyl)amino)tetrahydro-2H-pyran-4-yl)methyl)-N-(6-(trifluoromethyl)pyridin-2-yl)propionamide]
- Ki: ≥ 1000 nM

SMILES: CCOCCN(C)CCN(C)C1(CN(C(=O)CC)c2cccc(C(F)(F)F)n2)CCOCC1 [Example 4, N-((4-((2-((2-Ethoxyethyl)(methyl)amino)ethyl)(methyl)amino)tetrahydro-2H-pyran-4-yl)methyl)-N-(6-(trifluoromethyl)pyridin-2-yl)propionamide]
- σ1 and μ binding: ++
